These results are taken from US10829501B2 (BRISTOL-MYERS SQUIBB COMPANY, priority 2016, dated 2020).

Structures can show the parent of a compound that is named as a salt. Where two headings read alike, the source gives them in different places.

In one assay the target is ROCK2 (Homo sapiens, UniProt O75116). Nature of the assay: ROCK2 kinase inhibition assay (LABCHIP 3000 Reader, FITC peptide substrate).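 Further: rho kinase reaction read by separating phosphorylated from unphosphorylated peptide on chip, with inhibition of kinase activity computed per concentration across a dose-response series.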
The next assay deals with neointimal formation. To be noted: rats, balloon injury model; cited from earlier work.
Assay [1] relates to spontaneously hypertensive rat, renal hypertensive rat and deoxycortisone acetate salt hypertensive rat models. Conditions: cited from earlier work.
Assay [2] concerns congestive heart failure in Dahl salt-sensitive rats. Conditions: cited from earlier work.
The next assay has as its system rat stroke model. To be noted: cited from earlier work.
Assay [3] concerns IL-1 beta-induced coronary stenosis. Conditions: long term treatment, porcine model; cited from earlier work.
[4] abbreviates: read-out: ROCK2 Activity (ROCK2 IC50), 5 μM ATP, 1.5 μM peptide substrate, pH 7.5.

ROCK2, sequence (O75116 whole entry, species assumed): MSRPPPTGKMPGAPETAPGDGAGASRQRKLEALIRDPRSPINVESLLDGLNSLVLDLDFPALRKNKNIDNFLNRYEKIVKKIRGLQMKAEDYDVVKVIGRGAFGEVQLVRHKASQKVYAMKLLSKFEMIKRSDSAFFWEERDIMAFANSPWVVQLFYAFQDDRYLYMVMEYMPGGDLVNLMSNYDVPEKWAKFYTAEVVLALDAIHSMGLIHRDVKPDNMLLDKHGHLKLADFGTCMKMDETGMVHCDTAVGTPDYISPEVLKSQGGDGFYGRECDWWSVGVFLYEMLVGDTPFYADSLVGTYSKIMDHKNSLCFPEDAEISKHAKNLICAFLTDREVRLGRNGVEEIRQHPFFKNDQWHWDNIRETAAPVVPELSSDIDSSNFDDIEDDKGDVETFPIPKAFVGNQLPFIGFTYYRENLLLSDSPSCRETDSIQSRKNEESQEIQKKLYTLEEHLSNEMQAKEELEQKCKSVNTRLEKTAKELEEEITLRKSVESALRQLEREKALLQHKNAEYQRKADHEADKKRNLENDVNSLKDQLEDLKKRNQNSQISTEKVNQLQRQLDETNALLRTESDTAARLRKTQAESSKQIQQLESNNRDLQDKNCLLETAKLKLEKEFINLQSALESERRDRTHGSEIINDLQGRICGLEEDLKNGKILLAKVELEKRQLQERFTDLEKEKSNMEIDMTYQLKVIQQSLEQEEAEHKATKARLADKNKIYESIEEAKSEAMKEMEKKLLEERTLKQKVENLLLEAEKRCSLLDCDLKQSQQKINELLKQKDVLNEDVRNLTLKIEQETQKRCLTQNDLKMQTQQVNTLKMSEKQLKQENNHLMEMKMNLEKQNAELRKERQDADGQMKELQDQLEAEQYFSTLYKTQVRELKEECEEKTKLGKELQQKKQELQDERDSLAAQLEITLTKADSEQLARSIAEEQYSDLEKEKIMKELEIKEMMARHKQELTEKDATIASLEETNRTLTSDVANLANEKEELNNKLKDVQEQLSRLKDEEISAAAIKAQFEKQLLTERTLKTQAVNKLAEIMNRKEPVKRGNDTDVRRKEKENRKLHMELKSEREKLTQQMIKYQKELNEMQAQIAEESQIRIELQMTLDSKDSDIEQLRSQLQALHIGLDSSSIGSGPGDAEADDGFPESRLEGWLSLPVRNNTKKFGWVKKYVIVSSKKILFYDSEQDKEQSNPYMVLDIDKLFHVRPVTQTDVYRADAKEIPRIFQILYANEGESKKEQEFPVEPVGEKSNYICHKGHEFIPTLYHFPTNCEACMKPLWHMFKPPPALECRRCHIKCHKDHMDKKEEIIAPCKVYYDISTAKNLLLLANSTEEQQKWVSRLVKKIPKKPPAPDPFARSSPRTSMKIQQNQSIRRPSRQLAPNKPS

As a reminder, the IC50 is the midpoint of a concentration-inhibition curve. Turning to `Cc1nc(C(=O)NC2CC3(C2)CC(Oc2ncccc2C(N)=O)C3)c2ccc(-c3cnn(C)c3)cn12` [Example 460, N-((aR)-6-((3-carbamoylpyridin-2-yl)oxy)spiro[3.3]heptan-2-yl)-3-methyl-6-(1-methyl-1H-pyrazol-4-yl)imidazo[1,5-a]pyridine-1-carboxamide], at ROCK2 (setting [4]), the IC50 was in the range of 0.005 to 0.05 µM. Regarding `NC(=O)c1cccnc1OC1CC2(CC(NC(=O)c3nc(N)nc4ccccc34)C2)C1` [Example 461, 2-Amino-N-((aR)-6-((3-carbamoylpyridin-2-yl)oxy)spiro[3.3]heptan-2-yl)quinazoline-4-carboxamide, 2 TFA], at ROCK2 (setting [4]), the IC50 lay in the range of 0.05 to 0.25 µM. In the case of `NC(=O)c1cccnc1OC1CC2(CC(NC(=O)c3cnn4c(C5CC5)c(OCC5(O)CCC5)ccc34)C2)C1` [Example 462, N-((aR)-6-((3-carbamoylpyridin-2-yl)oxy)spiro[3.3]heptan-2-yl)-7-cyclopropyl-6-((1-hydroxycyclobutyl)methoxy)pyrazolo[1,5-a]pyridine-3-carboxamide, TFA], the half-inhibitory concentration (IC50) on ROCK2 (setting [4]) was < 0.005 µM. At ROCK2, `[H][C@]1(Oc2ncccc2C(N)=O)C[C@]2(C[C@@H](NC(=O)c3cn4ccc(OCc5ccccc5)cc4n3)C2)C1` (stereo partly drawn) [Example 463, 7-(benzyloxy)-N-((aR)-6-((3-carbamoylpyridin-2-yl)oxy)spiro 3.31 heptan-2-yl)imidazo[1,2-a]pyridine-2-carboxamide, TFA Salt] registered an IC50 of 0.05 to 0.25 µM. With `[H][C@]1(Oc2ncccc2C(N)=O)C[C@]2(C[C@@H](NC(=O)c3cn4cc(OC)ccc4n3)C2)C1` (stereo partly drawn) [Example 464, N-((aR)-6-((3-carbamoylpyridin-2-yl)oxy)spiro[3.3]heptan-2-yl)-6-methoxyimidazo[1,2-a]pyridine-2-carboxamide, TFA Salt], the IC50 on ROCK2 was in the range of 0.25 to 2.5 µM. Consider `C[C@@H](N)[C@H]1CC[C@H](C(=O)Nc2ccncc2)CC1` [Example Y-27632], for which the neointimal formation entry in the assay on neointimal formation is recorded as “inhibited neointimal formation”. In addition, the blood pressure entry in assay [1] (control rats) was “only a minor effect on blood pressure”; in assay [1] (three rat models of hypertension), “significantly decrease blood pressure”. Moreover, the “ventricular hypertrophy, fibrosis and function” value in assay [2] was “improve ventricular hypertrophy, fibrosis and function”. `O=S(=O)(c1cccc2cnccc12)N1CCCNCC1` [fasudil]: in the assay on rat stroke model, the “infarct size and neurologic deficit” value is “reduce both the infarct size and neurologic deficit”. Further, in assay [3], the coronary constrictive remodeling result is listed as “promote a regression of coronary constrictive remodeling” and the coronary stenosis result is on record as “progressively reduce coronary stenosis”. Consider “N-((aR)-6-((3- carbamoylpyridin-2- yl)oxxy)spiro[3.3] heptan-2-yl)- 5-fluoro-1- (2-hydroxy-2- methylpropyl)- 3a,7a-dihydro- 1H-indazole-3- carboxamide, trifluoroacetate [Example 67]”, for which, on ROCK2 (setting [4]), the IC50 was in the range of 0.005 to 0.05 µM. Still for that read-out and setting: as for “N-((aR)-6-((3- carbamoylpyridin-2- yl)oxy))spiro[3.3] heptan-2-yl)- 6-((E)-3,3,3- trifluoroprop-1- en-1-yl) pyrazolo[1,5- a]pyridine-3- carboxamide, trifluoroacetate [Example 116]”, the figure is 0.005 to 0.05 µM; as for “N-((aR)-6-((3- carbamoylpyridin-2- yl)oxy)spiro [3.3]heptan-2-yl)- 6- methoxypyrazolo[1,5- a]pyridine-3- carboxamide, trifluoroacetate [Example 100]”, 0.005 to 0.05 µM; as for “N-((aR)-6-((3- carbamoylpyridin-2- yl)oxy)spiro[3.3] heptan-2-yl)- 6-(3-hydroxy-3- methylbutoxy) pyrazolo[1,5- a]pyridine-3- carboxamide, trifluoroacetate [Example 123]”, 0.005 to 0.05 µM. Same read-out and setting: as for “N-((aR)- 6-((3- carbamoyl- pyridin-2- yl)oxy)spiro[3.3] heptan-2-yl)- 1-(2- hydroxy-2- methylpropyl)-1H- pyraolo[3,4-b] pyridine-3- carboxamide, trifluoroacetate [Example 94]”, the figure is 0.005 to 0.05 µM; as for “N-((aR)- 6-((3- carbamoylpyridin- 2- yl)oxy)spiro[3.3] heptan-2-yl)- 2-(3,3-difluoroazetidin- 1-yl)- 4-methylthiazole- 5- carboxamide, trifluoroacetate [Example 90]”, 0.05 to 0.25 µM.
